# Reference: publication PMC8152265, “Seconeolitsine, the Novel Inhibitor of DNA Topoisomerase I, Protects against Invasive Pneumococcal Disease Caused by Fluoroquinolone-Resistant Strains” (Antibiotics, 2021)
# Like-named read-outs stand apart in the source and are kept apart here.
# Key:
# [1] = system: S. pneumoniae isolate CipR5 (serotype 33F); test: MIC by broth microdilution, isolate CipR5; type: cell-based, Streptococcus pneumoniae; conditions: AGCH medium, 18–24 h
# Procedure: (§1) Bacteria were grown in Todd-Hewitt broth supplemented with 0.5% yeast extract (Difco) to an optical density at 580 nm (OD580) of 0.4 to 0.5 corresponding to ca. 10^8 CFU/mL. Single-use aliquots were stored at −80 °C in 10% glycerol to use in mice infections as previously described. Antimicrobial susceptibility was tested by broth microdilution, according to the Clinical and Laboratory Standards Institute guidelines. S. pneumoniae R6 was included as a quality control. Powders of known potency of LVX and MXF were purchased from Sigma. SCN was synthesized as previously described. Briefly, for MIC determination, pneumococcal strains were grown in a casein hydrolysate-based medium with 0.3% sucrose as an energy source (AGCH medium). A 96-well plate was used including broth containing different concentrations of antibiotics. Plates were inoculated with a standardized suspension of the pneumococcal strains followed by incubation at 37 °C with 5% CO2 for 18–24 h. The minimal inhibitory concentrations (MICs) were determined by observing the lowest concentration of the agent that inhibited visible growth of the bacterium.
# [2] = system: S. pneumoniae isolate CipR15 (serotype 16F); test: MIC by broth microdilution, isolate CipR15; type: cell-based, Streptococcus pneumoniae; conditions: AGCH medium, 18–24 h
# Procedure: as §1
# [3] = system: S. pneumoniae isolate CipR45 (serotype 8); test: MIC by broth microdilution, isolate CipR45; type: cell-based, Streptococcus pneumoniae; conditions: isolate CipR45, serotype 8, low-level FQ-resistant, AGCH medium, 18–24 h
# Procedure: as §1
# [4] = system: S. pneumoniae isolate CipR57 (serotype 8); test: MIC by broth microdilution, isolate CipR57; type: cell-based, Streptococcus pneumoniae; conditions: isolate CipR57, serotype 8, high-level FQ-resistant, AGCH medium, 18–24 h
# Procedure: as §1
# [5] = system: S. pneumoniae isolate CipR72 (serotype 15A); test: MIC by broth microdilution, isolate CipR72; type: cell-based, Streptococcus pneumoniae; conditions: AGCH medium, 18–24 h
# Procedure: as §1
# [6] = system: S. pneumoniae isolate CipR45; test: Mouse sepsis model, survival after infection with CipR45; type: in vivo, Streptococcus pneumoniae; conditions: mice infected i.p. with CipR45
# Procedure: (§2) BALB/c female mice (8–12 weeks old) weighing 20 g were purchased from Harlan Laboratories (Barcelona, Spain). […] Different concentrations of antibiotic (10, 20, and 40 mg/kg for SCN; 12.5, 25, and 50 mg/kg for LVX) were administered two times a day over 48 h by the subcutaneous route. The doses, interval, and schedule chosen were based in previous studies investigating the protective activity of FQs against pneumococcal sepsis in mice. Seconeolitsine stock solution was dissolved in dimethyl sulfoxide (DMSO) and the doses tested for protection in animals were prepared in PBS containing 1% DMSO. Animals in the lethal control groups were infected with S. pneumoniae and received the antibiotic solvent (PBS−1% DMSO) instead of SCN or LVX. The toxicity control for each antibiotic (no infection group) only received SCN or LVX. Animal experiments were performed in groups of at least 5 mice and were repeated twice.
# [7] = system: S. pneumoniae isolate CipR57; test: Mouse sepsis model, survival after infection with CipR57; type: in vivo, Streptococcus pneumoniae; conditions: for survival within the first 48 h post-infection / survival at 36 h post-infection: mice infected i.p. with CipR57; for survival within the first 48 h post-infection: any concentration investigated (12.5 to 50 mg/kg s.c. every 12 h)
# Procedure: as §2
# [8] = system: S. pneumoniae isolate CipR57; test: Bacterial counts in blood of mice infected with CipR57; type: in vivo, Streptococcus pneumoniae; conditions: for effect on bacterial load in blood compared to the untreated group: 24 and 48 h post-infection, LVX 25 and 50 mg/kg, SCN different doses; for bacterial levels in blood at 24 h: 24 h post-infection; for bacteria in blood at 48 h: 48 h post-infection
# Procedure: Bacteremic profiles (colony counts in blood) were determined from mice treated with SCN and LVX, at 24 h and 48 h post-infection, when the majority of mice were alive. To collect blood samples, volumes of 6 µl were obtained from the tail vein, as previously described, resuspended in PBS and plated onto blood agar plates at 37 °C in 5% CO2 for colony counts determination.
# [9] = Serum pharmacokinetics in non-infected mice after single subcutaneous dose; type: in vivo, BALB/c mice
# Procedure: Groups of two mice for each antibiotic and time-point were treated with a single subcutaneous dose of 40 mg/kg of SCN or 50 mg/kg of LVX. Blood samples were collected at 15 and 30 min and 1, 2, 4, 6, 8, 10, 12, 14, 18, and 24 h, centrifuged for 10 minutes at 2000 rpm, and the sera from the different mice were stored at −80 °C until drug assay determination.
# Seconeolitsine concentrations were measured by high-pressure liquid chromatography analysis (HPLC). Chromatographic separation was performed using SunFire C18 column (150 × 4.6 mm; Waters Corporation, MA, USA) with trifluoroacetic acid and acetonitrile in the ratio 70:30 (vol./vol.) as the mobile phase. The solvent flow rate was 1.0 mL/min with a runtime of 20 minutes. The mobile phase was filtered through 0.45 µm prior to use. Standards ranging from 0−1.000 µg/mL were prepared in HPLC grade methanol. Sample dilutions, prepared in mouse serum, were injected into the column at a constant volume of 20 µl and were tested in duplicate. The detection wavelength was 270 by UV absorbance using a Waters UV–Visible 2489 module (Waters Corporation). The column was maintained at room temperature.
# Plates containing a lawn of microorganism were incubated for 18–24 h at 37 °C. Standards and dilutions were prepared in mouse serum in a range from 0.03–8 µg/ mL.
# Pharmacokinetic (PK) parameters measured included peak level (Cmax), time peak level (Tmax), area under the concentration time-curve from 0 to last (Clast) measured concentration (AUClast), and elimination half-life (t1/2). These parameters were estimated for both the total concentrations and the free fraction concentrations and were determined by using protein binding values, by a non-compartmental approach with the Phoenix WinNonlin program (version 6.2, Certara, NJ, USA). […] T>MIC for total and unbound concentrations (fT>MIC) were determined by a non-compartmental approach for PD data (Phoenix WinNonlin, model 220).
# plasma proteins = test: Protein binding by ultrafiltration; type: in vitro ADME; conditions: murine plasma
# Procedure: Binding to serum proteins was determined by the ultrafiltration method (36) using the Centrifree micropartition system (Amicon Bioseparations, Millipore, Tullagreen, Ireland) with concentrations in murine plasma of 1 and 50 μg/mL for SCN and 5 and 50 μg/mL for LVX. Pre-filtered samples and ultrafiltrates recovered were measured by HPLC or bioassay, as described above. Percentage of SCN or LVX bound to proteins in mouse serum was calculated using the expression: [antibiotic in pre−filtered samples] − [antibiotic in ultrafiltrated samples]/[antibiotic in pre-filtered samples] × 100 as previously described.
# S. pneumoniae Topo I = system: S. pneumoniae Topo I; design: method as in PMID 21169356; conditions: cited from earlier work
# S. pneumoniae = system: S. pneumoniae; design: method as in PMID 21169356; conditions: cited from earlier work
# human cell = system: human cell; design: method as in PMID 21169356; conditions: cited from earlier work
# [10] = Toxicity control, non-infected mice; type: in vivo, BALB/c mice; conditions: 40 mg/kg, largest concentration used; 7 days of follow-up
# Procedure: as §2
# Hydrosolubility = type: physicochemical; conditions: data not shown
# [11] = Streptococcus pneumoniae, read-out: MIC
# [12] = BALB/c, mouse, in vivo, sc, 50 mg/kg
# [13] = mouse serum, single s.c. dose 40 mg/kg (seconeolitsine) or 50 mg/kg (levofloxacin)
smiles,measurement,setting,value
"O=C(O)c1cn(C2CC2)c2cc(N3CCNCC3)c(F)cc2c1=O [CIP, ciprofloxacin]",MIC,[1]; [11],16 µg/mL
same,MIC,[2]; [11],32 µg/mL
same,MIC,[3]; [11],4 µg/mL
same,MIC,[4]; [11],64 µg/mL
same,MIC,[5]; [11],64 µg/mL
"C[C@H]1COc2c(N3CCN(C)CC3)c(F)cc3c(=O)c(C(=O)O)cn1c23 [Levofloxacin, levofloxacin]",MIC,[1]; [11],8 µg/mL
same,MIC,[2]; [11],16 µg/mL
same,MIC,[3]; [11],2 µg/mL
same,MIC,[4]; [11],16 µg/mL
same,MIC,[5]; [11],32 µg/mL
same,survival at 36 h post-infection,[6]; 12.5 mg/kg s.c. every 12 h over 48 h,40%
same,survival at 36 h post-infection,[6]; 25 mg/kg s.c. every 12 h over 48 h,80%
same,survival at 36 h post-infection,[6]; 50 mg/kg s.c. every 12 h over 48 h,100%
same,survival at 78 h post-treatment,[6]; 12.5 to 50 mg/kg s.c. every 12 h over 48 h,all mice succumbed to the infection
same,survival within the first 48 h post-infection,[7],all died within the first 48 h
same,survival within the first 48 h post-infection,[7]; listed as LVX,all the animals died within the first 48 h post-infection
same,effect on bacterial load in blood compared to the untreated group,[8],did not reduce bacterial levels in blood
same,bacterial levels in blood at 24 h,[8],around 10^8 CFU/mL
same,bacteria in blood at 48 h,[8],High levels of bacterial counts
same,Cmax,[9]; [12],14700 ± 700 ng/mL
same,Tmax,[9]; [12],15 min
same,half-life,[9]; [12],42 min
same,AUC(0-t),"[9]; BALB/c, mouse, in vivo, sc, 50 mg/kg, AUC0-12h",17300 ± 1500 ng·h/mL
same,AUC(0-t),"[9]; BALB/c, mouse, in vivo, sc, 50 mg/kg, AUC0-24h",34600 ± 2900 ng·h/mL
same,binding to plasma proteins,plasma proteins; 5 µg/mL,12%
same,binding to plasma proteins,plasma proteins; 50 µg/mL,33%
CN(C)CCc1cc2c(c3c1ccc1cc4c(cc13)OCO4)OCO2 [N-methyl-seconeolitsine],concentration inhibiting S. pneumoniae Topo I activity in vitro,S. pneumoniae Topo I,~ 10 µM
same,concentration inhibiting cell growth,S. pneumoniae,~ 10 µM
same,effect on human cell viability,human cell,without affecting human cell viability
"COc1c(N2C[C@@H]3CCCN[C@@H]3C2)c(F)cc2c(=O)c(C(=O)O)cn(C3CC3)c12 [MXF, moxifloxacin]",MIC,[1]; [11],2 µg/mL
same,MIC,[2]; [11],4 µg/mL
same,MIC,[3]; [11],0.25 µg/mL
same,MIC,[4]; [11],4 µg/mL
same,MIC,[5]; [11],4 µg/mL
"CNCCc1cc2c(c3c1ccc1cc4c(cc13)OCO4)OCO2 [Seconeolitsine, seconeolitsine]",MIC,[1],5.2 µg/mL
same,MIC,[2],2.6 µg/mL
same,MIC,[3],5.2 µg/mL
same,MIC,[4],2.6 µg/mL
same,MIC,[5],5.2 µg/mL
same,survival at 36 h post-infection,[7]; 20 mg/kg s.c. every 12 h over 48 h,60%
same,survival at 36 h post-infection,[7]; 40 mg/kg s.c. every 12 h over 48 h,70%
same,protection at 48 h,"[7]; mice infected with a serotype 8-resistant strain, 40 mg/kg every 12 h during two days (abstract)",70%
same,effect on bacterial load in blood compared to the untreated group,[8],significantly reduced bacterial load
same,bacterial levels in blood at 24 h,[8],10^4−10^5 CFU/mL
same,bacteria in blood at 48 h,[8],a significant proportion of mice treated with SCN were free of bacteria
same,SCN-derived metabolites in murine plasma,[9]; by HPLC,not detected
same,AUC0-12h,[9]; [13],5000 ± 0 ng·h/mL
same,Cmax,[9]; [13],1600 ± 300 ng/mL
same,Cmin,[9]; [13],300 ± 40 ng/mL
same,Tlast,[9]; [13],9.0 ± 1.4 h
same,Tmax,[9]; [13],60 ± 0 min
same,t1/2,[9]; [13],468 ± 144 min
same,AUC0-24h,"[9]; mouse serum, single s.c. dose 40 mg/kg (seconeolitsine) or 50 mg/kg (levofloxacin), twice the AUC0-last",10000 ± 100 ng·h/mL
same,binding to plasma proteins,plasma proteins; 1 µg/mL,40%
same,binding to plasma proteins,plasma proteins; 50 µg/mL,80%
same,"harm to non-infected mice (survival, aspect, breathing, hair, eyes, appetite, movement, weight)",[10],not harmful
same,hydrosolubility,Hydrosolubility,poor hydrosolubility
same,concentration inhibiting S. pneumoniae Topo I activity in vitro,S. pneumoniae Topo I,~ 10 µM
same,concentration inhibiting cell growth,S. pneumoniae,~ 10 µM
same,effect on human cell viability,human cell,without affecting human cell viability
